SMILES strings stand for the structures. Active and inactive are the calls of the source. The rule behind the calls is not given here.

In ChEMBL document CHEMBL4152293, “Synthesis and biological evaluation of podophyllotoxin derivatives as selective antitumor agents” (Eur J Med Chem, 2018) one finds IC50, Activity and viability data, which are given here for one compound.

For one series, the system named is HepG2. Nature of the series: Cytotoxicity against human HepG2 cells assessed as growth inhibition after 72 hrs by MTT assay. The format is functional, cell-based. To be noted: HepG2, 72 h. On the technique in general: Formazan colour is commonly taken as a measure of viable cells.
The test system of series [1] is L02. Nature of the series: Cytotoxicity against human L02 cells assessed as growth inhibition after 72 hrs by MTT assay. Type of series: cell-based. The conditions noted are these: L02, 72 h.
Series [2] has as its system A549. Nature of the series: Induction of morphological changes in nucleus of human A549 cells at 10 to 30 nM after 72 hrs by DAPI staining-based fluorescence microscopic method. The format is functional, cell-based.
For series [3], the system named is A549. Nature of the series: Induction of apoptosis in human A549 cells assessed as late apoptotic cells at 10 nM after 72 hrs by annexin V-FITC/propidium iodide staining-based flow cytometric method (reference value: 4.1%). Type of series: functional.
Series [4] relates to A549. Nature of the series: Induction of apoptosis in human A549 cells assessed as viable cells at 10 nM after 72 hrs by annexin V-FITC/propidium iodide staining-based flow cytometric method (reference value: 92.8%). The format is functional. To be noted: A549, 72 h, read-out: Activity. (In flow cytometry, cells or beads pass a laser one at a time.)
Series [5] deals with A549. Nature of the series: Induction of apoptosis in human A549 cells assessed as necrotic cells at 100 nM after 72 hrs by annexin V-FITC/propidium iodide staining-based flow cytometric method (reference value: 0.1%). Type of series: functional.
The subject of series [6] is A549. Nature of the series: Induction of apoptosis in human A549 cells assessed as necrotic cells at 200 nM after 72 hrs by annexin V-FITC/propidium iodide staining-based flow cytometric method (reference value: 0.1%). Type of series: functional.
For series [7], the system named is L02. Nature of the series: Induction of apoptosis in human L02 cells assessed as early apoptotic cells at 10 nM after 72 hrs by annexin V-FITC/propidium iodide staining-based flow cytometric method (reference value: 2%). Type of series: cell-based. The conditions noted are these: l02, 72 h, 0.01 µM.
Series [8] can be described thus: Induction of apoptosis in human L02 cells assessed as viable cells at 200 nM after 72 hrs by annexin V-FITC/propidium iodide staining-based flow cytometric method (reference value: 96.3%). To be noted: read-out: Activity. The format is cell-based.
The test system of series [9] is A549. Nature of the series: Cell cycle arrest in human A549 cells assessed as accumulation at G2/M phase at 5 nM after 72 hrs by propidium iodide staining-based flow cytometric method (reference value: 14.23%). The format is functional.
Series [10] relates to A549. Nature of the series: Cell cycle arrest in human A549 cells assessed as accumulation at S phase at 5 nM after 72 hrs by propidium iodide staining-based flow cytometric method (reference value: 24.48%). Type of series: functional.
Series [11] has as its system A549. Nature of the series: Cell cycle arrest in human A549 cells assessed as accumulation at S phase at 100 nM after 72 hrs by propidium iodide staining-based flow cytometric method (reference value: 24.48%). Type of series: functional.
The test system of series [12] is L02. Nature of the series: Cell cycle arrest in human L02 cells assessed as accumulation at G0/G1 phase at 5 nM after 72 hrs by propidium iodide staining-based flow cytometric method (reference value: 57.34%). To be noted: l02, 72 h, 0.005 µM. Type of series: ADME.
For series [13], the system named is L02. Nature of the series: Cell cycle arrest in human L02 cells assessed as accumulation at S phase at 5 nM after 72 hrs by propidium iodide staining-based flow cytometric method (reference value: 25.78%). The conditions noted are these: l02, 72 h, 0.005 µM. The format is ADME.
Series [14] relates to L02. Nature of the series: Cell cycle arrest in human L02 cells assessed as accumulation at G0/G1 phase at 10 nM after 72 hrs by propidium iodide staining-based flow cytometric method (reference value: 57.34%). The conditions noted are these: l02, 72 h, 0.01 µM. Type of series: ADME.
Series [15] has as its system L02. Nature of the series: Cell cycle arrest in human L02 cells assessed as accumulation at S phase at 10 nM after 72 hrs by propidium iodide staining-based flow cytometric method (reference value: 25.78%). The format is ADME. The conditions noted are these: l02, 72 h, 0.01 µM.

Broadly, the IC50 is the concentration that inhibits the measured activity by half. For the compound `COc1cc([C@@H]2c3cc4c(cc3[C@H](OC(=O)CN(C)C(=O)OC(C)(C)C)[C@H]3COC(=O)[C@H]23)OCO4)cc(OC)c1OC`, the concentration for half-maximal inhibition (IC50) came to 96.4 nM in the series on HepG2 and 160 nM in the series with L02 [1]. The result in the series on A549 [2] was Active. Also, the Activity was found to be 8.1% in the series with A549 [3]; 0% with A549 [5]; 0% with A549 [6]; 4.3% in the series on L02 [7]; 13.74% in the series with A549 [9]; 26.07% in the series on A549 [10]. Moreover, the Activity was 47.13% in the series with A549 [11]; 62.19% with L02 [12]; 24.04% in the series with L02 [13]; 62.3% with L02 [14]; 24.59% with L02 [15]. In addition, in the series with A549 [4], the viability at 0.01 µM was found to be 87.8%. Further, in series [8], the viability at 72 h, 0.2 µM is 31.8%.
